In ChEMBL document CHEMBL5316324, “Discovery, Characterization, and Engineering of LvIC, an α4/4-Conotoxin That Selectively Blocks Rat α6/α3β4 Nicotinic Acetylcholine Receptors” (J Med Chem, 2023):
Calls of active or inactive are those of the source. The rule behind the calls is not given here. Peptide text beside a SMILES is read from it.

Columns and labels:
[1] = molecular target: Neuronal acetylcholine receptor; alpha2/beta4 (Rattus norvegicus, UniProt P12389+P12392); assay: Inhibition of rat alpha2/beta4 nAChR expressed in Stage V-VI Xenopus laevis Oocytes assessed as inhibition of acetylcholine-induced current in presence of acetylcholine by electrophysiological recording; assay type: cell-based, Oocyte
Neuronal acetylcholine receptor; alpha2/beta4, sequence (P12389 whole entry): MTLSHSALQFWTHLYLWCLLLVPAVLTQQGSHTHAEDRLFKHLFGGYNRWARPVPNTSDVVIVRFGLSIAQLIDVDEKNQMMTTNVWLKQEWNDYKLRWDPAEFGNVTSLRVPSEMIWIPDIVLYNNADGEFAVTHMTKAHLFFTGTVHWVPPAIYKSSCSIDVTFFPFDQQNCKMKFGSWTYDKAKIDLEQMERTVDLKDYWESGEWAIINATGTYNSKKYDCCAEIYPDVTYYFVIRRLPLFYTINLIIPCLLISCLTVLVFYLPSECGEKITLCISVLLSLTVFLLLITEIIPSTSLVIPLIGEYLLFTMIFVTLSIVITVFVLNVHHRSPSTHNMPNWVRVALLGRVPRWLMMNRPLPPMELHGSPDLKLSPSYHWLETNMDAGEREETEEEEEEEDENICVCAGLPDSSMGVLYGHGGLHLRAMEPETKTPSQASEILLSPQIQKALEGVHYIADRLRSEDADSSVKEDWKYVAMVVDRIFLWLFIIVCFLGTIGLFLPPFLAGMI
Neuronal acetylcholine receptor; alpha2/beta4, sequence (P12392 whole entry): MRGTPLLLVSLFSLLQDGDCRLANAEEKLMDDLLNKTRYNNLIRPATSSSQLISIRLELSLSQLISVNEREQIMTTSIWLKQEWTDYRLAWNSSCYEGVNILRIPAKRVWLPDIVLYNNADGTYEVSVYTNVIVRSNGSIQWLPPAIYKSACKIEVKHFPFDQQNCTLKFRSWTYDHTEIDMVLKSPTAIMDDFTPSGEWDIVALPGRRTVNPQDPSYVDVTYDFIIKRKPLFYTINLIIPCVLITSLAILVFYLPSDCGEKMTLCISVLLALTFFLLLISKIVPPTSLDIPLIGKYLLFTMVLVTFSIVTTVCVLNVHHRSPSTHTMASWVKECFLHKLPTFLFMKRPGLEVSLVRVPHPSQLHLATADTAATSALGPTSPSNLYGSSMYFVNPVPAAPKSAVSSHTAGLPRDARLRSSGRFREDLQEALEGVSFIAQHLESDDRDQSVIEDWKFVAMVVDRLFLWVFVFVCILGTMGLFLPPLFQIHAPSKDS

[2] = Inhibition of rat alpha6/alpha3beta4 K57T mutant nAChR expressed in Stage V-VI Xenopus laevis Oocytes assessed as inhibition of acetylcholine-induced current in presence of acetylcholine by electrophysiological recording; assay type: cell-based; conditions: Oocyte
Oocyte [3] = assay: (§1) Inhibition of rat alpha6/alpha3 D152A mutant beta4 nAChR expressed in Stage V-VI Xenopus laevis Oocytes assessed as inhibition of acetylcholine-induced current by measuring recovery time at 10 uM preincubated with compound for 5 mins followed by washout in presence of acetylcholine by electrophysiological recording; assay type: cell-based
[4] = Inhibition of rat alpha6/alpha3beta4 I166S mutant nAChR expressed in Stage V-VI Xenopus laevis Oocytes assessed as inhibition of acetylcholine-induced current in presence of acetylcholine by electrophysiological recording; assay type: cell-based; conditions: Oocyte
[5] = molecular target: T1, Neuronal acetylcholine receptor; alpha3/beta4 (Rattus norvegicus) (UniProt P04757+P12392); assay: Inhibition of rat alpha3/beta4 nAChR expressed in Stage V-VI Xenopus laevis Oocytes assessed as inhibition of acetylcholine-induced current at 10 uM in presence of acetylcholine by electrophysiological recording relative to control; assay type: cell-based; conditions: Oocyte
[6] = molecular target: T2, Nicotinic acetylcholine receptor alpha6/alpha3/beta2/beta3 (Rattus norvegicus) (UniProt P04757+P12390+P12391+P43143); assay: Inhibition of rat alpha6/alpha3beta2beta3 nAChR expressed in Stage V-VI Xenopus laevis Oocytes assessed as inhibition of acetylcholine-induced current at 10 uM in presence of acetylcholine by electrophysiological recording relative to control; assay type: cell-based; conditions: Oocyte
Oocyte [7] = assay: Inhibition of rat alpha6/alpha3beta4 K57T mutant nAChR expressed in Stage V-VI Xenopus laevis Oocytes assessed as acetylcholine-induced current response at 1 uM in presence of 100 uM acetylcholine by electrophysiological recording relative to control; assay type: cell-based
[8] = molecular target: Nicotinic acetylcholine receptor alpha6/alpha3/beta2/beta3 (Rattus norvegicus, UniProt P04757+P12390+P12391+P43143); assay: Inhibition of rat alpha6/alpha3beta2beta3 nAChR expressed in Stage V-VI Xenopus laevis Oocytes assessed as inhibition of acetylcholine-induced current in presence of acetylcholine by electrophysiological recording; assay type: cell-based, Oocyte
Nicotinic acetylcholine receptor alpha6/alpha3/beta2/beta3, sequence (P04757 whole entry): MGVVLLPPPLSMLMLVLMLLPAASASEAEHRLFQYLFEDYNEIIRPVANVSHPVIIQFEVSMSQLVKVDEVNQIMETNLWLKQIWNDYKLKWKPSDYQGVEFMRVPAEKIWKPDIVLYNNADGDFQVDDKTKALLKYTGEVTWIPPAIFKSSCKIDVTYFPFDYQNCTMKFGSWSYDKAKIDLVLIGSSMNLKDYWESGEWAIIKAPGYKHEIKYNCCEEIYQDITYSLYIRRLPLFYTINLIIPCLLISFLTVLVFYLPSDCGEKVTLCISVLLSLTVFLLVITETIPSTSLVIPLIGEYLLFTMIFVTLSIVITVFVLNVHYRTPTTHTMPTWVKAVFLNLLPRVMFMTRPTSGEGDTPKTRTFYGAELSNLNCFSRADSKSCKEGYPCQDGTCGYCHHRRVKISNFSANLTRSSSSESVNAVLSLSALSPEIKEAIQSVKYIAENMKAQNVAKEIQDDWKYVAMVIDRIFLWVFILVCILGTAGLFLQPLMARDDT
Nicotinic acetylcholine receptor alpha6/alpha3/beta2/beta3, sequence (P12390 whole entry): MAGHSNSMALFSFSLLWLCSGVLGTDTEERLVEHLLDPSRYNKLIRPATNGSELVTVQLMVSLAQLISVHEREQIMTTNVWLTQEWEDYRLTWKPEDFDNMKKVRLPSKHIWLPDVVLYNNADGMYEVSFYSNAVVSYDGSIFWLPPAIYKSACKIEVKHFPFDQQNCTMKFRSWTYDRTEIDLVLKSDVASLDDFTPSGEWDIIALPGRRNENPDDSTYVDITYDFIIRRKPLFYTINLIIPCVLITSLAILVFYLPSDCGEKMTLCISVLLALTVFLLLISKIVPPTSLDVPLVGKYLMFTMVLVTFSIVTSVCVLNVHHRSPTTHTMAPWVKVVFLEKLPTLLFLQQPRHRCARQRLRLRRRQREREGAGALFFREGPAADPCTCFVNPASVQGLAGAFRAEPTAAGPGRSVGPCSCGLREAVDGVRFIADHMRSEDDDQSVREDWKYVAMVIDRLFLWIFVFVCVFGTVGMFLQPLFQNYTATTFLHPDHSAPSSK
Nicotinic acetylcholine receptor alpha6/alpha3/beta2/beta3, sequence (P12391 whole entry): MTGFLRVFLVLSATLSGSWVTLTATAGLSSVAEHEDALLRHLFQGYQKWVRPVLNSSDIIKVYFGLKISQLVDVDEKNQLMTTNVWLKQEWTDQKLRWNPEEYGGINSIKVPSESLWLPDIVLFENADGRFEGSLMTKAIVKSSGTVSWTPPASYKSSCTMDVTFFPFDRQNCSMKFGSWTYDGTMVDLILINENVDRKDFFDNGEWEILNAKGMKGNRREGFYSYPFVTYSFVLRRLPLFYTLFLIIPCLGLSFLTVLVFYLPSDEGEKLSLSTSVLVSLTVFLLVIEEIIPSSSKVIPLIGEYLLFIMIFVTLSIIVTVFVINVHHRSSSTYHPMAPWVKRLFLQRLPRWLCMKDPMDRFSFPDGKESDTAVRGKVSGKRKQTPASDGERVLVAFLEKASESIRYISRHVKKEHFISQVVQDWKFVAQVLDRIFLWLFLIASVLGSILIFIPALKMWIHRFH
Nicotinic acetylcholine receptor alpha6/alpha3/beta2/beta3, sequence (P43143 whole entry): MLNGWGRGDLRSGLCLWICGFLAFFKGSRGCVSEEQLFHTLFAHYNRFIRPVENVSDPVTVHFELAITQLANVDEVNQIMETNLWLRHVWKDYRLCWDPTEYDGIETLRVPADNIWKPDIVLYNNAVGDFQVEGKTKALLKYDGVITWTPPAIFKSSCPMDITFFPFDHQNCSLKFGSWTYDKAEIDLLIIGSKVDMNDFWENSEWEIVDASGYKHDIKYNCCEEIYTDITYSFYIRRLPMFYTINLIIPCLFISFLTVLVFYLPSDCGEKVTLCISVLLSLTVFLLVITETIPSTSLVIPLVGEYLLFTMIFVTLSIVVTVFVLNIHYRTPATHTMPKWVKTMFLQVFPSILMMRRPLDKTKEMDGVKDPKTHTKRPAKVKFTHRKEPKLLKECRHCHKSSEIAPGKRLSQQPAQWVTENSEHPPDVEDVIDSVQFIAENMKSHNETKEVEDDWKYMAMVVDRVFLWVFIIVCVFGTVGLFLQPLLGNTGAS

Rattus norvegicus [9] = species: Rattus norvegicus; assay: Selectivity index, ratio of IC50 for rat alpha6/alpha3beta4 D161A mutant nAChR expressed in Stage V-VI Xenopus laevis oocytes to IC50 for rat alpha6/alpha3beta4 nAChR expressed in Stage V-VI Xenopus laevis Oocytes by electrophysiological recording; assay type: cell-based
[10] = molecular target: Nicotinic acetylcholine receptor alpha9/alpha10 (Rattus norvegicus, UniProt P43144+Q9JLB5); assay: Inhibition of rat alpha9/alpha10 nAChR expressed in Stage V-VI Xenopus laevis Oocytes assessed as inhibition of acetylcholine-induced current in presence of acetylcholine by electrophysiological recording; assay type: cell-based, Oocyte
Nicotinic acetylcholine receptor alpha9/alpha10, sequence (P43144 whole entry): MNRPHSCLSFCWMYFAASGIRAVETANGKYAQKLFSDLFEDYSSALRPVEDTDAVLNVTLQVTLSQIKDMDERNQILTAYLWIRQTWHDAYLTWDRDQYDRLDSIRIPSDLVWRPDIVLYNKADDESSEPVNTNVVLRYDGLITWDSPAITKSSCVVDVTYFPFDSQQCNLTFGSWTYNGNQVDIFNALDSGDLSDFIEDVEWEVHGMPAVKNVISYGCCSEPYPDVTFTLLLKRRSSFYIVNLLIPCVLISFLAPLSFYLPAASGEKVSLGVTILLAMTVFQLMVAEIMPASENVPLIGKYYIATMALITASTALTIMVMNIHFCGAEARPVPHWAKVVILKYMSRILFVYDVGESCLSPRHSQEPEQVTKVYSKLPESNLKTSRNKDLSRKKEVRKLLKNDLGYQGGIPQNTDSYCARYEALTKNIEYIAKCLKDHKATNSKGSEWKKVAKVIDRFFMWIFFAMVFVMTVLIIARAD
Nicotinic acetylcholine receptor alpha9/alpha10, sequence (Q9JLB5 whole entry): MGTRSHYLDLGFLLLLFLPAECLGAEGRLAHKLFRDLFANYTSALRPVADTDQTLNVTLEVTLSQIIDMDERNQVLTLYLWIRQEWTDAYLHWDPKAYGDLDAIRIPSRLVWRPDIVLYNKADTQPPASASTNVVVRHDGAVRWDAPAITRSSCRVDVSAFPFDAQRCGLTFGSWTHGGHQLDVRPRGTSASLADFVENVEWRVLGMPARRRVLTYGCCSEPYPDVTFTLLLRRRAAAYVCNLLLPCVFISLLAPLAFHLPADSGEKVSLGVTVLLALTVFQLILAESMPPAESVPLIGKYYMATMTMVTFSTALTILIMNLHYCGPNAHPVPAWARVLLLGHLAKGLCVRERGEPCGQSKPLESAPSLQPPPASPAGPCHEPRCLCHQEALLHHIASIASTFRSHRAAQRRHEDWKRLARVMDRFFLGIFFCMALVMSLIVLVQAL

[11] = molecular target: Nicotinic acetylcholine receptor alpha6/alpha3/beta4 (Rattus norvegicus) (UniProt P04757+P12392+P43143); assay: Inhibition of rat alpha6/alpha3beta4 nAChR expressed in Stage V-VI Xenopus laevis Oocytes assessed as acetylcholine-induced current response at 100 nM in presence of 100 uM acetylcholine by electrophysiological recording relative to control; assay type: cell-based; conditions: Oocyte
[12] = Inhibition of rat alpha6/alpha3beta4 D161A mutant nAChR expressed in Stage V-VI Xenopus laevis Oocytes assessed as inhibition of acetylcholine-induced current in presence of acetylcholine by electrophysiological recording; assay type: cell-based; conditions: Oocyte
Oocyte [13] = assay: Inhibition of rat alpha6/alpha3 D152A mutant beta4 nAChR expressed in Stage V-VI Xenopus laevis Oocytes assessed as acetylcholine-induced current response at 100 nM in presence of 100 uM acetylcholine by electrophysiological recording relative to control; assay type: cell-based; design: scale not given: the % may be the effect or the level left
[14] = Inhibition of rat alpha6/alpha3 D152A mutant beta4 nAChR expressed in Stage V-VI Xenopus laevis Oocytes assessed as inhibition of acetylcholine-induced current in presence of acetylcholine by electrophysiological recording; assay type: cell-based; conditions: Oocyte
Oocyte [15] = assay: Inhibition of rat alpha6/alpha3 E34M mutant beta4 nAChR expressed in Stage V-VI Xenopus laevis Oocytes assessed as inhibition of acetylcholine-induced current by measuring recovery at 10 uM preincubated with compound for 5 mins followed by measured after 20 mins washout by electrophysiological recording; assay type: cell-based; design: scale not given: the % may be the effect or the level left; conditions: time 25.0 min
Rattus norvegicus [16] = species: Rattus norvegicus; assay: Inhibition of rat alpha6/alpha3 E195A mutant beta4 nAChR expressed in Stage V-VI Xenopus laevis Oocytes assessed as acetylcholine-induced current response at 1 uM in presence of 100 uM acetylcholine by electrophysiological recording relative to control; assay type: cell-based
Oocyte [17] = assay: as §1, with “T59K” for “D152A”; assay type: cell-based
Rattus norvegicus [18] = species: Rattus norvegicus; assay: Selectivity index, ratio of IC50 for rat alpha6/alpha3beta4 1166S mutant nAChR expressed in Stage V-VI Xenopus laevis oocytes to IC50 for rat alpha6/alpha3beta4 nAChR expressed in Stage V-VI Xenopus laevis Oocytes by electrophysiological recording; assay type: cell-based
[19] = molecular target: Neuronal acetylcholine receptor subunit alpha-7 (Rattus norvegicus) (UniProt Q05941); assay: Inhibition of rat alpha7 nAChR expressed in Stage V-VI Xenopus laevis Oocytes assessed as inhibition of acetylcholine-induced current at 10 uM in presence of acetylcholine by electrophysiological recording relative to control; assay type: cell-based; conditions: Oocyte
Neuronal acetylcholine receptor subunit alpha-7 (Rattus norvegicus), sequence (Q05941 whole entry): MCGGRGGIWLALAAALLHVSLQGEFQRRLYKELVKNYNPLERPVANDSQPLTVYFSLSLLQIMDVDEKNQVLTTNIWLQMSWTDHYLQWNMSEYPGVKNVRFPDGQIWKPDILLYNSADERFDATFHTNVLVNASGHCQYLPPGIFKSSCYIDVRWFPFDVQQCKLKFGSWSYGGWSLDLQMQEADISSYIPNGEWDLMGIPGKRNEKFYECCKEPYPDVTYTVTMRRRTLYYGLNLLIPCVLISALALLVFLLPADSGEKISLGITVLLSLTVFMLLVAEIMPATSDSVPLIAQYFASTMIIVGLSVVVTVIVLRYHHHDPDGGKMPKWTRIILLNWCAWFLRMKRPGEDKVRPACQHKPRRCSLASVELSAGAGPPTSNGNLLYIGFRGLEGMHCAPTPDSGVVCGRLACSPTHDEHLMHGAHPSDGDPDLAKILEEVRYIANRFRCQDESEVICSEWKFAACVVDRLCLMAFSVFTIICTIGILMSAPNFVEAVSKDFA

[20] = molecular target: Neuronal acetylcholine receptor; alpha4/beta4 (Rattus norvegicus) (UniProt P09483+P12392); assay: Inhibition of rat alpha4/beta4 nAChR expressed in Stage V-VI Xenopus laevis Oocytes assessed as inhibition of acetylcholine-induced current at 10 uM in presence of acetylcholine by electrophysiological recording relative to control; assay type: cell-based; conditions: Oocyte
Rattus norvegicus [21] = species: Rattus norvegicus; assay: Selectivity index, ratio of IC50 for rat alpha6/alpha3 E195A mutant beta4 nAChR expressed in Stage V-VI Xenopus laevis oocytes to IC50 for rat alpha6/alpha3beta4 nAChR expressed in Stage V-VI Xenopus laevis Oocytes by electrophysiological recording; assay type: cell-based
Oocyte [22] = assay: as §1, with “E195A” for “D152A”; assay type: cell-based
[23] = Inhibition of rat alpha6/alpha3 E195A mutant beta4 nAChR expressed in Stage V-VI Xenopus laevis Oocytes assessed as inhibition of acetylcholine-induced current in presence of acetylcholine by electrophysiological recording; assay type: cell-based; conditions: Oocyte
[24] = molecular target: Nicotinic acetylcholine receptor alpha6/alpha3/beta4 (Rattus norvegicus, UniProt P04757+P12392+P43143); assay: Inhibition of rat alpha6/alpha3beta4 nAChR expressed in Stage V-VI Xenopus laevis Oocytes assessed as inhibition of acetylcholine-induced current in presence of acetylcholine by electrophysiological recording; assay type: cell-based, Oocyte
Nicotinic acetylcholine receptor alpha6/alpha3/beta4, sequence (P04757 whole entry): as the sequence (P04757 whole entry) above
Nicotinic acetylcholine receptor alpha6/alpha3/beta4, sequence (P12392 whole entry): as the sequence (P12392 whole entry) above
Nicotinic acetylcholine receptor alpha6/alpha3/beta4, sequence (P43143 whole entry): as the sequence (P43143 whole entry) above

[25] = molecular target: T2, Nicotinic acetylcholine receptor alpha6/alpha3/beta2/beta3 (Rattus norvegicus); assay: Inhibition of rat alpha6/alpha3beta2beta3 nAChR expressed in Stage V-VI Xenopus laevis Oocytes assessed as inhibition of acetylcholine-induced current at 10 uM in presence of acetylcholine by electrophysiological recording; assay type: cell-based; conditions: Oocyte
[26] = molecular target: T1, Neuronal acetylcholine receptor; alpha3/beta4 (Rattus norvegicus); assay: Inhibition of rat alpha3beta4 nAChR expressed in Stage V-VI Xenopus laevis Oocytes assessed as inhibition of acetylcholine-induced current at 10 uM in presence of acetylcholine by electrophysiological recording; assay type: cell-based; conditions: Oocyte

CC(C)[C@H](NC(=O)[C@@H]1CCCN1C(=O)[C@H](CC(N)=O)NC(=O)[C@H](C)NC(=O)[C@H](CS)NC(=O)[C@H](CS)NC(=O)[C@@H](N)CCCNC(=N)N)C(=O)N[C@@H](CS)C(=O)N[C@@H](CC(N)=O)C(=O)NCC(=O)N[C@@H](CCCCN)C(=O)N[C@@H](Cc1cnc[nH]1)C(=O)N[C@@H](CS)C(N)=O (H-RCCANPVCNGKHC-NH2)
IC50 [1]: > 10000 nM
IC50 [2]: 134 nM
TIME (Oocyte [3]): 0.0667 h
IC50 [4]: 50.8 nM
inhibition [5]: < 50%
inhibition [6]: < 50%
inhibition (Oocyte [7]): 92.7%
IC50 [8]: > 10000 nM
Ratio IC50 (Rattus norvegicus [9]): 3.3
IC50 [10]: > 10000 nM
inhibition [11]: 85.5%
IC50 [12]: 63 nM
Activity (Oocyte [13]): 22.6%
IC50 [14]: 470 nM
Activity (Oocyte [15]): 66.3%
inhibition (Rattus norvegicus [16]): 49.3%
TIME (Oocyte [17]): 0.0333 h
Ratio IC50 (Rattus norvegicus [18]): 2.7
inhibition [19]: < 50%
inhibition [20]: < 50%
Ratio IC50 (Rattus norvegicus [21]): 50.5
TIME (Oocyte [22]): 0.0167 h
IC50 [23]: 959 nM
IC50 [24]: 19 nM
inhibition [25]: inactive
inhibition [26]: inactive
